According to publication PMC6559944 (Journal of medicinal chemistry, 2019):
Entries after “also recorded” stand apart in the source; their conditions may differ. Where two headings read alike, the source gives them in different places.

Key:
[1] = tested on: Nluc-expressing C. parvum; conditions: for Efficacy (reduction in oocyst shedding / infection), in words: oral, 5 days, doses of Table 3
[2] = mice, 25 mg/kg PO, feces collected 24 h
[3] = tested on: human ether-á-go-go related gene (hERG); conditions: cited from earlier work
[4] = mouse, in vivo, 25 mg/kg; for Half Life: po
[5] = rat
[6] = mouse, in vivo
[7] = mouse, in vivo; remark: listed apart in the source
[8] = IFN-γ KO mice, 60 mg/kg QD for 5 days

With `CCOc1ccc2cc(-c3nn(CC(C)(C)CO)c(N)c3C(N)=O)ccc2c1` [Compound 3, 5-amino-3-(6-ethoxynaphthalen-2-yl)-1-(3-hydroxy-2,2-dimethylpropyl)-1H-pyraz-+ole-4-carboxamide] the “Efficacy (reduction in oocyst shedding / infection), in words” value ([1]; IFN-γ KO mice) was “failed to reduce infection; also recorded: Failed efficacy, low c-Src IC50” and the “Fecal concentration from 25 mg/kg dose” value [2] was 7.6 µM.
In the case of `CCOc1ccc2cc(-c3nn(C(C)(C)C)c(N)c3C(N)=O)cnc2c1` [BKI 1517], the “hERG inhibition signal in vitro” value [3] is given as “did not have significant in vitro hERG inhibition signal”.
In the case of “5-amino-3-(2-cyclopropoxyquinolin-6-yl)-1-(4-hydroxybutan-2-yl)-1H-pyrazole-4-carboxamide [Compound 10]”, the “Oral Clearance” value [4] is reported as 0.1 mL/min, the “Half Life” value [4] is reported as 2.047 h and the “Fecal concentration from 25 mg/kg dose” value [2] is reported as 4.5 µM.
For “5-amino-3-(7-cyclopropoxyquinolin-3-yl)-1-(4-hydroxybutan-2-yl)-1H-pyrazole-4-carboxamide [Compound 11]”, the “Efficacy (reduction in oocyst shedding / infection), in words” value ([1]; IFN-γ KO mice) was “significant reduction in oocyst shedding”, the “Oral Clearance” value [4] was 0.7 mL/min and the “Half Life” value [4] was 1.42 h.
With `CCOc1ccc2cc(-c3nn(C(C)CCO)c(N)c3C(N)=O)ccc2c1` (centres unmarked) [Compound 9, 5-amino-3-(6-ethoxynaphthalen-2-yl)-1-(4-hydroxybutan-2-yl)-1H-pyrazole-4-carboxamide] the Efficacy in words ([1]; IFN-γ KO mice, 30 mg/kg BID for 5 days) was “remain a full log above the LLOD”, the Efficacy in words [1, 8] was “efficacious” and the “Efficacy (reduction in oocyst shedding / infection), in words” value ([1]; IFN-γ KO mice) was “significant reduction in oocyst shedding”.
In the case of `CC(C)(CO)n1nc(-c2ccc3cc(OC4CC4)ccc3c2)c(C(N)=O)c1N` [Compound 24, 5-amino-3-(6-cyclopropoxynaphthalen-2-yl)-1-(1-hydroxy-2-methylpropan-2-yl)-1H-pyrazole-4-carboxamide], the “Efficacy (reduction in oocyst shedding / infection), in words” value ([1]; IFN-γ KO mice) is reported as “significant reduction in oocyst shedding”, the “Fecal concentration from 25 mg/kg dose” value [2] is reported as 3.5 µM and the “Liabilities: in vivo cardiovascular” value [5] is reported as “In vivo cardiovascular liabilities (data not shown)”.
With `CCOc1ccc2cc(-c3nn(C(C)(C)CO)c(N)c3C(N)=O)ccc2c1` [Compound 21, 5-amino-3-(6-ethoxynaphthalen-2-yl)-1-(1-hydroxy-2-methylpropan-2-yl)-1H-pyrazole-4-carboxamide] the “Efficacy (reduction in oocyst shedding / infection), in words” value ([1]; IFN-γ KO mice) was “failed to reduce infection; also recorded: Failed efficacy” and the “Fecal concentration from 25 mg/kg dose” value [2] was 7.1 µM.
In the case of `CCOc1ccc2cc(-c3nn(CC4CCN(C)CC4)c4ncnc(N)c34)ccc2c1` [BKI 1294], the “hERG activity in vitro” value [3] is listed as “has shown activity against the human ether-á-go-go related gene (hERG) in vitro”.
For `CCOc1ccc2cc(-c3nn(CC4CC4)c(N)c3C(N)=O)ccc2c1` [Compound 27, 5-amino-1-(cyclopropylmethyl)-3-(6-ethoxynaphthalen-2-yl)-1H-pyrazole-4-carboxamide], the “Efficacy (reduction in oocyst shedding / infection), in words” value ([1]; IFN-γ KO mice) was “Failed efficacy” and the “Fecal concentration from 25 mg/kg dose” value [2] was 54 µM.
For `CCOc1ccc2cc(-c3nn(C(C)(C)CO)c(N)c3C(N)=O)cnc2c1` [Compound 19, 5-amino-3-(7-ethoxyquinolin-3-yl)-1-(1-hydroxy-2-methylpropan-2-yl)-1H-pyrazole-4-carboxamide], the “Fecal concentration from 25 mg/kg dose” value [2] was 2.9 µM.
In the case of `CCOc1ccc2cc(-c3nn(C(C)(C)CCO)c(N)c3C(N)=O)ccc2c1` [Compound 15, 5-amino-3-(6-ethoxynaphthalen-2-yl)-1-(4-hydroxy-2-methylbutan-2-yl)-1H-pyrazole-4-carboxamide], the Efficacy in words ([1]; IFN-γ KO mice, 5 mg/kg BID for 5 days) is reported as “failed to provide an efficacious result”, the Efficacy in words ([1]; IFN-γ KO mice, 15 mg/kg BID for 5 days) is reported as “failed to provide an efficacious result” and the Efficacy in words ([1]; IFN-γ KO mice, 30 mg/kg BID for 5 days, 30 mg/kg) is reported as “efficacious; also recorded: reductions to below the LLOD”. For the same molecule, the “Log reduction (to below the LLOD)” value ([1]; IFN-γ KO mice, 60 mg/kg BID for 5 days) was 4 log, the Efficacy in words [1, 8] was “failed to provide an efficacious result” and the Efficacy in words ([1]; IFN-γ KO mice, 120 mg/kg QD for 5 days) was “reductions to below the LLOD”. For the same molecule, the “Efficacy (reduction in oocyst shedding / infection), in words” value ([1]; IFN-γ KO mice) was “significant reduction in oocyst shedding”, the “Toxicity to human cell lines” value (human cell lines) was “not toxic to a variety of human cell lines” and the “CBC and serum chemistry results” value [6] was “within the normal range”. For the same molecule, the “Histological analysis of all major organs” value [6] was “no abnormalities” and the “Observable signs of toxicity” value ([6]; 150 mg/kg) was “Neither dose concentration showed any observable signs of toxicity”.
In the case of `CC(CCO)n1nc(-c2ccc3cc(OC4CC4)ccc3c2)c(C(N)=O)c1N` (centres unmarked) [Compound 12, 5-amino-3-(6-cyclopropoxynaphthalen-2-yl)-1-(4-hydroxybutan-2-yl)-1H-pyrazole-4-carboxamide], the “Liabilities: toxicity during efficacy study” value ([1]; IFN-γ KO mice efficacy study) is reported as “Signs of toxicity during efficacy” and the “Fecal concentration from 25 mg/kg dose” value [2] is reported as 10.3 µM.
In the case of `CCOc1ccc2cc(-c3nn(C(C)(C)CO)c(N)c3C(N)=O)ccc2n1` [Compound 20, 5-amino-3-(2-ethoxyquinolin-6-yl)-1-(1-hydroxy-2-methylpropan-2-yl)-1H-pyrazole-4-carboxamide], the Efficacy in words ([1]; IFN-γ KO mice, 10 mg/kg BID) is reported as “failed to provide a significant reduction from initial infection levels”, the Efficacy in words ([1]; IFN-γ KO mice, 20 mg/kg BID) is reported as “failed to provide a significant reduction from initial infection levels” and the Efficacy in words [1, 8] is reported as “efficacious to the LLOD”. The “Efficacy (reduction in oocyst shedding / infection), in words” value ([1]; IFN-γ KO mice) was “significant reduction in oocyst shedding” and the “Fecal concentration from 25 mg/kg dose” value [2] was 0.41 µM.
With `CCOc1ccc2cc(-c3nn(C(C)CCO)c(N)c3C(N)=O)cnc2c1` (centres unmarked) [Compound 7, 5-amino-3-(7-ethoxyquinolin-3-yl)-1-(4-hydroxybutan-2-yl)-1H-pyrazole-4-carboxamide] the “Efficacy (reduction in oocyst shedding / infection), in words” value ([1]; IFN-γ KO mice) was “significant reduction in oocyst shedding” and the “Fecal concentration from 25 mg/kg dose” value [2] was 1.1 µM.
In the case of `CC(C)(C)n1nc(-c2ccc3cc(OC4CC4)ccc3c2)c(C(N)=O)c1N` [Compound 25, 5-amino-1-(tert-butyl)-3-(6-cyclopropoxynaphthalen-2-yl)-1H-pyrazole-4-carboxamide], the Efficacy in words ([1]; IFN-γ KO mice, 15 mg/kg QD for 5 days) is reported as “failed to reduce infections from their initial levels”, the Efficacy in words ([1]; IFN-γ KO mice, 30 mg/kg QD for 5 days) is reported as “reduced infection to below the LLOD” and the Efficacy in words [1, 8] is reported as “efficacious”. The “Efficacy (reduction in oocyst shedding / infection), in words” value ([1]; IFN-γ KO mice) was “efficacious”, the “Plasma Concentration” value ([7]; 100 mg/kg) was 19.9 ± 5.4 µM and the “Plasma Concentration” value ([7]; 100 mg/kg, 2 h) was 49.2 ± 4.7 µM. For the same molecule, the “Plasma Concentration” value ([7]; 250 mg/kg) was 36.1 ± 16.7 µM, the “Fecal concentration from 25 mg/kg dose” value [2] was 0.42 µM and the “CBC and serum chemistry results” value [6] was “within the normal range”. The “Histological analysis of all major organs” value [6] was “no abnormalities”, the “Observable signs of toxicity” value ([6]; 100 mg/kg) was “No signs of toxicity were observed” and the “Observable signs of toxicity” value ([6]; 250 mg/kg) was “Minor signs of toxicity”.
